Values joined by “and” are separate entries in the source; they are usually repeats but may differ in a detail not shown here. Equal values may be shown once.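 Values below derive from 48-hour exposures of cells grown in 96-well plates, with endpoints linearly interpolated between the two concentrations bracketing the appropriate inhibition level. GI50 = concentration required for 50% inhibition of growth. TGI is the concentration that stops growth completely.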
Tests used:
Experiment in all cases: NCI tumour cell line growth inhibition, 48 h
[1] = tested on: SK-MEL-2 melanoma
[2] = tested on: SNB-19 CNS
[3] = tested on: HT29 colon
[4] = tested on: HL-60(TB) leukemia
[5] = tested on: SR leukemia
[6] = tested on: MDA-MB-231 breast
[7] = tested on: M14 melanoma
[8] = tested on: OVCAR-5 ovarian
[9] = tested on: SN12C renal
[10] = tested on: NCI-H460 lung

Row | Structure (SMILES) | TGI [1] [µM] | TGI [2] [µM] | TGI [3] [µM] | TGI [4] [µM] | TGI [5] [µM] | TGI [6] [µM] | TGI [7] | TGI [8] [µM] | TGI [9] | TGI [10] [µM] | GI50 [1] [µM] | GI50 [2] [µM] | GI50 [3] [µM] | GI50 [4] [µM] | GI50 [5] [µM] | GI50 [6] [µM] | GI50 [7] [µM] | GI50 [8] [µM] | GI50 [9] [µM] | GI50 [10] [µM]
1 | Clc1ccc(C=Nc2ccc3c(c2)Cc2ccccc2-3)c(Cl)c1 | > 100 | > 100 | > 100 | > 100 | > 100 | > 100 | > 100 µM | > 100 | > 100 µM | > 100 |  |  |  |  |  |  |  |  |  | 
2 | O=C1Nc2ccc(F)cc2/C1=C/c1ccc[nH]1 | > 25 | > 25 | > 25 | > 25 | > 25 | > 25 | > 25 µM | > 25 | > 25 µM | > 25 | > 25 | > 25 | > 25 | > 25 | 7.84 | 7.65 | > 25 | > 21.3 | > 25 | > 25
3 | Nc1nc(F)nc2c1ncn2C1OC(CO)C(O)C1O (stereo unspecified) | > 100 | > 100 | > 100 | > 100 | > 100 | > 100 | > 58.6 µM and 40.2 µM | > 100 | > 72.2 µM and 45.1 µM | > 100 |  | 14.6 |  | 3.3 | > 68.9 |  | 6.39 |  | 5.55 | 43.2
4 | CCOc1cc(C(C)(C)C)ccc1C1=N[C@@](C)(c2ccc(Cl)cc2)[C@@](C)(c2ccc(Cl)cc2)N1C(=O)N1CCN(CCCS(C)(=O)=O)CC1 | 30 | 17.8 | 9.28 | 6.15 | > 100 | 12.9 | > 100 µM | 20.8 | 14.5 µM | 11.8 | 9.14 | 5.12 | 2.96 | 2.48 | 0.236 | 3.41 | 3.6 | 8.41 | 3.84 | 0.895
5 | Cc1ccc2[nH]c(O)c(N=Nc3ccc(S(N)(=O)=O)cc3)c2c1 | > 25 | > 25 | > 25 | > 25 | > 25 | > 25 | > 25 µM | > 25 | > 25 µM | > 25 | > 25 | > 19.1 | 12.1 | > 25 | 7.23 | > 25 | > 25 | > 25 | 15.4 | 6.86
6 | CN(C)C(=O)[C@H](O)[C@H](Cc1ccccc1)NC(=O)c1cc2cc(Cl)ccc2[nH]1 | 37.2 | > 100 | 48.8 | 54.1 | 88.7 | 52.8 | 67.6 µM | 49.9 | > 95.1 µM | 56.1 | 17.2 | 26.1 | 20.3 | 19.1 | 26.6 | 19.6 | 23.2 | 19.1 | 23.5 | 22
7 | CC1=C[C@H]2c3c(c(O)c(O)c4oc(-c5ccccc5)cc(=O)c34)[C@H](c3cc(O)c(O)c4oc(-c5ccccc5)cc(=O)c34)[C@H]2C(C)(C)C1 | 9.61 | 17 | > 75 | 7.33 | > 75 | 17.7 | 4.88 µM | 13 | 7.31 µM | 1.83 | 1.77 | 0.557 | 0.888 | 2.33 | 0.457 | 2.71 | 0.887 | 3.22 | 1.09 | 0.275
8 | CC(C)(C[C@H]1CN(S(=O)(=O)c2cccc(C(F)(F)F)c2)c2cc(-c3cc(F)cc(OC(F)F)c3)ccc2O1)C(=O)O | 18.2 | 20.7 | 15.6 | 24.8 | 23.8 | 34 | 17.5 µM | 25.9 | 28 µM | 16.3 | 4.8 | 5.92 | 4.01 | 4.82 | 3.29 | 13.3 | 4.59 | 12.6 | 11.3 | 4.1

Source: PubChem BioAssay (NCI)
